The values below come from ChEMBL document CHEMBL1125238, “A new class of calcium antagonists. Synthesis and biological activity of 11-[(omega-aminoalkanoyl)amino]-6,6a,7,8,9,10,10a,11-octahydrodibenzo [b,e]thiepin derivatives” (J Med Chem, 1991).

One may read the pA2 as the negative logarithm of the molar antagonist concentration that doubles the agonist concentration needed for the same response.

For the first assay, the species on record is Rattus norvegicus. In words: Calcium antagonistic activity assessed against calcium-induced constriction of potassium-depolarized rat aorta. Type of assay: functional.
Settings: not given
As for `O=C(CCCN1CCN(c2ccccc2)CC1)N[C@H]1c2ccccc2SC[C@@H]2CCCC[C@H]21.O=C(O)C(=O)O`, the pA2 turned out to be 7.68.

For the compound `O=C(CCCN1CCN(c2ccc(F)cc2)CC1)N[C@H]1c2ccccc2[S+]([O-])C[C@@H]2CCCC[C@H]21` (stereo in doubt; 48), the pA2 stood at 6.48.

The same assay, now with this note: Rattus norvegicus, Aorta; read-out: pA2 (converted).
Turning to `O=C(CCCCCN1CCN(c2ccccc2)CC1)N[C@H]1c2ccccc2SC[C@@H]2CCCC[C@H]21`, the Kb was 30.2 nM.

Regarding `O=C(CCN1CCN(c2ccccc2)CC1)N[C@H]1c2ccccc2SC[C@@H]2CCCC[C@H]21`, the Kb was 41.7 nM.

As to `Cc1ccc(N2CCN(CCCC(=O)N[C@H]3c4ccccc4SC[C@@H]4CCCC[C@H]43)CC2)cc1`, the Kb is 70.8 nM.

In the case of `O=C(CCCN1CCN(C/C=C/c2ccccc2)CC1)N[C@H]1c2ccccc2SC[C@@H]2CCCC[C@H]21`, the Kb was 75.9 nM.

For `O=C(CN1CCN(c2ccccc2)CC1)N[C@H]1c2ccccc2SC[C@@H]2CCCC[C@H]21`, the Kb is 105 nM.

As for `O=C(CCCN1CCN(c2ccc(F)cc2)CC1)N[C@H]1c2ccccc2OC[C@@H]2CCCC[C@H]21`, the Kb is 138 nM.

`O=C(CCCN1CCN(Cc2ccc([N+](=O)[O-])cc2)CC1)N[C@H]1c2ccccc2SC[C@@H]2CCCC[C@H]21`: the Kb was 19.1 nM.

Turning to `O=C(CCCN1CCN(c2ccc(F)cc2)CC1)N[C@@H]1c2ccccc2SC[C@@H]2CCCC[C@@H]21`, the Kb is 18.6 nM.

In the case of `O=C(CCCN1CCN(C(c2ccccc2)c2ccccc2)CC1)N[C@H]1c2ccccc2SC[C@@H]2CCCC[C@H]21`, the Kb was 40.7 nM.

For the compound `O=C(CCCN1CCN(Cc2ccccc2)CC1)N[C@H]1c2ccccc2SC[C@@H]2CCCC[C@H]21`, the Kb is 15.8 nM.

For `O=C(CCCN1CCN(c2ccc(O)cc2)CC1)N[C@H]1c2ccccc2SC[C@@H]2CCCC[C@H]21`, the Kb is 69.2 nM.

For the compound `O=C(CCCN1CCN(c2ccc(Cl)cc2)CC1)N[C@H]1c2ccccc2SC[C@@H]2CCCC[C@H]21`, the Kb is 15.1 nM.

`O=C(CCCN1CCN(c2ccc(F)cc2)CC1)N[C@H]1c2ccccc2SC[C@@H]2CCCC[C@H]21`: the Kb was 6.92 nM.

`O=C(CCCN1CCN(c2ccc(F)cc2)CC1)N[C@H]1c2cc(Cl)ccc2SC[C@@H]2CCCC[C@H]21`: the Kb was 81.3 nM.

For `O=C(CCCN1CCN(c2ccc(F)cc2)CC1)N[C@H]1c2ccccc2SC[C@@H]2CCCC[C@@H]21`, the Kb was 7.08 nM.

Turning to `O=C(CCCN1CCN(Cc2cccc(F)c2)CC1)N[C@H]1c2ccccc2SC[C@@H]2CCCC[C@H]21`, the Kb was 30.2 nM.

For `COc1ccccc1N1CCN(CCCC(=O)N[C@H]2c3ccccc3SC[C@@H]3CCCC[C@H]32)CC1`, the Kb is 46.8 nM.

In the case of `O=C(CCCN1CCN(c2cccc3ccccc23)CC1)N[C@H]1c2ccccc2SC[C@@H]2CCCC[C@H]21`, the Kb is 57.5 nM.

In the case of `O=C(CCCN1CCN(Cc2ccc(F)cc2)CC1)N[C@H]1c2ccccc2SC[C@@H]2CCCC[C@H]21`, the Kb was 57.5 nM.

On to `O=C(CCCN1CCN(C(=O)c2ccccc2)CC1)N[C@H]1c2ccccc2SC[C@@H]2CCCC[C@H]21`, for which the Kb is 97.7 nM.

Turning to `O=C(CCCN1CCN(c2ccc(F)cc2)CC1)N[C@H]1c2cc(F)ccc2SC[C@@H]2CCCC[C@H]21`, the Kb was 77.6 nM.

Consider `O=C(CCCN1CCN(Cc2ccc(O)cc2)CC1)N[C@H]1c2ccccc2SC[C@@H]2CCCC[C@H]21`, for which the Kb is 70.8 nM.

On to `O=C(CCCCN1CCN(c2ccccc2)CC1)N[C@H]1c2ccccc2SC[C@@H]2CCCC[C@H]21`, for which the Kb was 28.2 nM.

As to `O=C(CCCN1CCN(c2ccc(C(F)(F)F)cc2)CC1)N[C@H]1c2ccccc2SC[C@@H]2CCCC[C@H]21`, the Kb is 8.91 nM.

In the case of `CN(C(=O)CCN1CCN(c2ccccc2)CC1)[C@H]1c2ccccc2SC[C@@H]2CCCC[C@H]21`, the Kb is 148 nM.

Consider `COc1ccc(N2CCN(CCCC(=O)N[C@H]3c4ccccc4SC[C@@H]4CCCC[C@H]43)CC2)cc1`, for which the Kb was 25.1 nM.

For `O=C(CCCN1CCN(c2cccc(F)c2)CC1)N[C@H]1c2ccccc2SC[C@@H]2CCCC[C@H]21`, the Kb was 15.1 nM.

Consider `O=C(CCCN1CCN(C2CCCCC2)CC1)N[C@H]1c2ccccc2SC[C@@H]2CCCC[C@H]21`, for which the Kb is 45.7 nM.

On to `COc1ccc(CN2CCN(CCCC(=O)N[C@H]3c4ccccc4SC[C@@H]4CCCC[C@H]43)CC2)cc1`, for which the Kb is 56.2 nM.

As to `COc1ccc2c(c1)[C@H](NC(=O)CCCN1CCN(c3ccc(F)cc3)CC1)[C@@H]1CCCC[C@H]1CS2`, the Kb was 17 nM.

Turning to `c1ccc(N2CCN(CCCN[C@H]3c4ccccc4SC[C@@H]4CCCC[C@H]43)CC2)cc1`, the Kb was 158 nM.

As for `O=C(CCCN1CCN(Cc2ccc(Cl)cc2)CC1)N[C@H]1c2ccccc2SC[C@@H]2CCCC[C@H]21`, the Kb is 26.9 nM.

Regarding `O=C(CCCN1CCN(c2ccc(F)cc2)CC1)N[C@@H]1c2ccccc2SC[C@@H]2CCCC[C@H]21`, the Kb is 26.9 nM.

With `Cc1ccc2c(c1)[C@H](NC(=O)CCCN1CCN(c3ccc(F)cc3)CC1)[C@@H]1CCCC[C@H]1CS2`, the Kb was 141 nM.

On to `O=C(CCCN1CCN(CCc2ccccc2)CC1)N[C@H]1c2ccccc2SC[C@@H]2CCCC[C@H]21`, for which the Kb was 72.4 nM.

Consider `O=C(CCCN1CCN(c2ccc(F)cc2)CC1)N[C@H]1c2ccccc2[S+]([O-])C[C@@H]2CCCC[C@H]21` (stereo in doubt; 49), for which the Kb was 324 nM.
